Several values for one entry are separate records, joined by “and”; a condition that tells them apart may be missing. Equal entries are not always repeated.
Target: PKCα (Homo sapiens, UniProt P17252)
Assay: [3H]PDBu displacement, 96-well plate filtration binding assay
Details: for Displacement assay raw data (CCPM): single replicate wells; for Residual [^3H]PDBu binding to PKCα (% of control): 20 μM compound concentration, mean + SEM, n = 2–8; for Displacement of [^3H]PDBu from PKCα (in words): concentration range of 0.2–30 μM

SMILES	Displacement assay raw data (CCPM) (0,2 µM test substance)	Displacement assay raw data (CCPM) (1 µM test substance)	Displacement assay raw data (CCPM) (4 µM test substance)	Displacement assay raw data (CCPM) (10 µM test substance)	Residual [^3H]PDBu binding to PKCα (% of control)	Displacement assay raw data (CCPM) (20 µM test substance)	Displacement assay raw data (CCPM) (30 µM test substance)	Displacement of [^3H]PDBu from PKCα (in words)	Displacement assay raw data (CCPM) (1 nM test substance, listed as PMA)	Displacement assay raw data (CCPM) (10 nM test substance, listed as PMA)	Displacement assay raw data (CCPM) (100 nM test substance, listed as PMA)
CCCCCCCOC(=O)c1nc(CO)nc(OCCCCCCC)c1C [Compound 2b, Heptyl 6-(heptyloxy)-2-(hydroxymethyl)-5-methylpyrimidine-4-carboxylate]	13052 CCPM and 11682 CCPM and 11827 CCPM and 17977 CCPM and 18315 CCPM and 17029 CCPM	11258 CCPM and 11582 CCPM and 12305 CCPM and 17512 CCPM and 18998 CCPM and 18500 CCPM	10048 CCPM and 11019 CCPM and 11674 CCPM and 17585 CCPM and 17180 CCPM and 19863 CCPM	10753 CCPM and 10221 CCPM and 10149 CCPM and 14691 CCPM and 16431 CCPM and 16220 CCPM	88.5 ± 5.7 % of control	9620 CCPM and 9492 CCPM and 9656 CCPM and 14771 CCPM and 14660 CCPM and 15872 CCPM	9760 CCPM and 10346 CCPM and 10712 CCPM and 16581 CCPM and 14486 CCPM and 14880 CCPM	–	–	–	–
CCCCC(CC)Oc1nc(CO)nc(C(=O)OCc2cccc(C(F)(F)F)c2)c1C (stereo not drawn) [Compound 2l, 3-(trifluoromethyl)benzyl 6-(heptan-3-yloxy)-2-(hydroxymethyl)-5-methylpyrimidine-4-carboxylate]	11787 CCPM and 12303 CCPM and 12556 CCPM and 11461 CCPM and 11853 CCPM and 10747 CCPM	11810 CCPM and 12833 CCPM and 12739 CCPM and 9497 CCPM and 9690 CCPM and 11213 CCPM	12017 CCPM and 12127 CCPM and 12580 CCPM and 10346 CCPM and 11241 CCPM and 10654 CCPM	10371 CCPM and 11662 CCPM and 12071 CCPM and 9995 CCPM and 8831 CCPM and 10464 CCPM	87.2 ± 3.1 % of control	9853 CCPM and 10455 CCPM and 11136 CCPM and 9012 CCPM and 9579 CCPM and 9472 CCPM	9538 CCPM and 8697 CCPM and 9196 CCPM and 7998 CCPM and 9967 CCPM and 8566 CCPM	strongest concentration dependence	–	–	–
CCCCCCOC(=O)c1nc(CO)nc(OCCCCCC)c1C [Compound 2a, Hexyl 6-(hexyloxy)-2-(hydroxymethyl)-5-methylpyrimidine-4-carboxylate]	7949 CCPM and 9699 CCPM and 8544 CCPM and 12898 CCPM and 11646 CCPM and 12786 CCPM	7626 CCPM and 8685 CCPM and 9639 CCPM and 11993 CCPM and 12245 CCPM and 12903 CCPM	7496 CCPM and 8524 CCPM and 9257 CCPM and 11421 CCPM and 11194 CCPM and 11877 CCPM	7467 CCPM and 7915 CCPM and 7828 CCPM and 11547 CCPM and 11263 CCPM and 11635 CCPM	85.3 ± 7.4 % of control	6283 CCPM and 8361 CCPM and 8257 CCPM and 10077 CCPM and 11544 CCPM and 10260 CCPM	6598 CCPM and 7105 CCPM and 7428 CCPM and 10040 CCPM and 10575 CCPM and 9972 CCPM	strongest concentration dependence	–	–	–
CCCCC(CC)OC(=O)c1cc(C(=O)OCC)nc(CO)n1 (stereo not drawn) [Compound 1d, 4-ethyl 6-(heptan-3-yl) 2-(hydroxymethyl)pyrimidine-4,6-dicarboxylate]	5785 CCPM and 11839 CCPM and 10949 CCPM and 11567 CCPM and 6093 CCPM and 6313 CCPM	5593 CCPM and 11705 CCPM and 12203 CCPM and 11600 CCPM and 5961 CCPM	5222 CCPM and 11573 CCPM and 11709 CCPM and 11091 CCPM and 5210 CCPM and 6475 CCPM	5570 CCPM and 12001 CCPM and 12205 CCPM and 11408 CCPM and 5899 CCPM and 5461 CCPM	98.2 ± 1.6 % of control	5518 CCPM and 11664 CCPM and 11365 CCPM and 11482 CCPM and 5575 CCPM and 5277 CCPM	5500 CCPM and 12337 CCPM and 11581 CCPM and 11144 CCPM and 5029 CCPM and 5100 CCPM	–	–	–	–
CCOC(=O)c1cc(C(=O)OCC)nc(CO)n1 [Compound 1h, Diethyl 2-(hydroxymethyl)pyrimidine-4,6-dicarboxylate]	6323 CCPM and 10230 CCPM and 10470 CCPM and 11100 CCPM and 5792 CCPM and 6513 CCPM	5802 CCPM and 9840 CCPM and 9837 CCPM and 10294 CCPM and 5441 CCPM and 6766 CCPM	5407 CCPM and 9299 CCPM and 9482 CCPM and 9928 CCPM and 5323 CCPM and 5809 CCPM	6198 CCPM and 9686 CCPM and 9902 CCPM and 9890 CCPM and 6355 CCPM and 6092 CCPM	116.3 ± 5.9 % of control	6120 CCPM and 9294 CCPM and 10766 CCPM and 9965 CCPM and 5572 CCPM and 5876 CCPM	5421 CCPM and 9318 CCPM and 10014 CCPM and 8246 CCPM and 4984 CCPM and 6346 CCPM	–	–	–	–
CCCCCCCCCCCCCC(=O)O[C@@H]1[C@@H](C)[C@@]2(O)[C@@H](C=C(CO)C[C@]3(O)C(=O)C(C)=C[C@@H]23)[C@@H]2C(C)(C)[C@]12OC(C)=O [Phorbol 12-myristate-13-acetate, reference compound]	–	–	–	–	–	–	–	–	1177 CCPM and 1302 CCPM and 1254 CCPM and 242 CCPM and 282 CCPM and 239 CCPM and 330 CCPM and 372 CCPM and 364 CCPM	406 CCPM and 456 CCPM and 410 CCPM and 123 CCPM and 132 CCPM and 186 CCPM and 230 CCPM and 206 CCPM	341 CCPM and 382 CCPM and 361 CCPM and 56 CCPM and 49 CCPM and 43 CCPM and 48 CCPM and 57 CCPM and 40 CCPM
CCCCC(CC)OC(=O)c1nc(CO)nc(OCc2cccc(C(F)(F)F)c2)c1C (stereo not drawn) [Compound 2h, Heptan-3-yl 2-(hydroxymethyl)-5-methyl-6-[[3-(trifluoromethyl)benzyl]oxy]pyrimidine-4-carboxylate]	5892 CCPM and 5535 CCPM and 6214 CCPM and 5732 CCPM and 5572 CCPM and 5002 CCPM	5789 CCPM and 5065 CCPM and 5775 CCPM and 5836 CCPM and 5313 CCPM and 4792 CCPM	5908 CCPM and 5351 CCPM and 5505 CCPM and 5457 CCPM and 5305 CCPM and 4736 CCPM	5951 CCPM and 5634 CCPM and 5541 CCPM and 4751 CCPM and 4877 CCPM and 4485 CCPM	86.8 ± 7.8 % of control	5509 CCPM and 4316 CCPM and 5047 CCPM and 4061 CCPM and 4136 CCPM and 4187 CCPM	5249 CCPM and 4747 CCPM and 5046 CCPM and 3715 CCPM and 4141 CCPM and 3683 CCPM	–	–	–	–
CCCCC(CC)Oc1nc(CO)nc(C(=O)OC)c1C (stereo not drawn) [Compound 2k, Methyl 6-(heptan-3-yloxy)-2-(hydroxymethyl)-5-methylpyrimidine-4-carboxylate]	13386 CCPM and 11844 CCPM and 11381 CCPM and 5560 CCPM and 5090 CCPM and 5580 CCPM	12313 CCPM and 12292 CCPM and 11097 CCPM and 5334 CCPM and 5340 CCPM and 5211 CCPM	12488 CCPM and 11770 CCPM and 11977 CCPM and 5381 CCPM and 5013 CCPM and 5436 CCPM	12602 CCPM and 12313 CCPM and 12064 CCPM and 5438 CCPM and 4595 CCPM and 5996 CCPM	110.7 ± 5.5 % of control	12386 CCPM and 11227 CCPM and 11279 CCPM and 6057 CCPM and 6588 CCPM and 6792 CCPM	11742 CCPM and 11565 CCPM and 11279 CCPM and 5575 CCPM and 6135 CCPM and 5991 CCPM	–	–	–	–
O=C(OCc1cccc(C(F)(F)F)c1)c1cc(C(=O)OCc2cccc(C(F)(F)F)c2)nc(CO)n1 [Compound 1g, Bis[3-(trifluoromethyl)benzyl] 2-(hydroxymethyl)pyrimidine-4,6-dicarboxylate]	5983 CCPM and 11409 CCPM and 12180 CCPM and 12791 CCPM and 7834 CCPM and 6792 CCPM	5197 CCPM and 12142 CCPM and 12212 CCPM and 11135 CCPM and 5159 CCPM and 5208 CCPM	7023 CCPM and 11774 CCPM and 11597 CCPM and 12149 CCPM and 8091 CCPM and 7399 CCPM	6399 CCPM and 11639 CCPM and 11927 CCPM and 11310 CCPM and 6008 CCPM and 6638 CCPM	111.8 ± 6.5 % of control	7300 CCPM and 11874 CCPM and 12244 CCPM and 12079 CCPM and 8018 CCPM and 7727 CCPM	6005 CCPM and 11016 CCPM and 11803 CCPM and 12038 CCPM and 5730 CCPM and 6258 CCPM	could not displace	–	–	–
CCCCCCCOc1nc(CO)nc(C(=O)OC(CC)CCCC)c1C (stereo not drawn) [Compound 2i, Heptan-3-yl 6-(heptyloxy)-2-(hydroxymethyl)-5-methylpyrimidine-4-carboxylate]	4873 CCPM and 4870 CCPM and 5222 CCPM and 7916 CCPM and 8966 CCPM and 8933 CCPM	5191 CCPM and 5217 CCPM and 5062 CCPM and 8605 CCPM and 8987 CCPM and 9227 CCPM	5070 CCPM and 5217 CCPM and 5699 CCPM and 8553 CCPM and 8476 CCPM and 8686 CCPM	4806 CCPM and 5282 CCPM and 4681 CCPM and 7955 CCPM and 8861 CCPM and 7525 CCPM	87.2 ± 1.7 % of control	4663 CCPM and 4781 CCPM and 4927 CCPM and 7593 CCPM and 7766 CCPM and 7574 CCPM	4959 CCPM and 5003 CCPM and 5038 CCPM and 7682 CCPM and 7603 CCPM and 7191 CCPM	–	–	–	–
